Experimental data from patent US7122335B1, “Compounds and methods to enhance rAAV transduction” (priority 1999, dated 2006).
Peptide text beside a SMILES is read from it. * marks the point of attachment. Cbz = O=C(OCc1ccccc1)*

Tests used:
mouse liver = assay: rAAV (AV.Alkphos) gene transfer in mouse liver in vivo, portal vein; set-up: species or system C57B6 mice
Experimental: FIG. 19. […] Recombinant AV.Alkphos (5×10^10 particles) was administered to mouse liver either as virus alone in PBS, virus in combination with 40 μM Z-LLL in PBS, or virus in combination with 200 μM LLnL in PBS. Virus was directly instilled into portal vein of the C57B6 mice. AAV-mediated alkaline phosphatase transgene expression was evaluated by histology staining at 2 and 4 weeks post-infection in frozen tissue sections. The average percentage of the alkphos positive cells in all 6 liver lobes of each individual animal was quantified by NIH image analysis software. The data represents the mean (+/−SEM) of 3 independent mice for each time point in each group.
Recombinant AV.Alkphos (5×10^10 particles) was also administered to mouse liver either as virus alone in PBS, virus in combination with 40 μM Z-LLL in PBS, or virus in combination with 20 μM LLnL in PBS. Virus was directly instilled into portal vein of the C57B6 mice. AAV-mediated alkaline phosphatase transgene expression was evaluated by histology staining at 2 and 4 weeks post infection in frozen tissue sections ([…]).

[1] = tested on: primary human fibroblasts; format: cell-based; conditions: confluent fibroblasts, AV.GFP3ori MOI 1000, 96 hours post-infection; brefeldin A 10 μg/ml, vinblastine 22 μM, cytochalasin B 1 μM, NH4Cl 2 mM, chloroquine 20 μm, LLnL 400 μM, Z-LLL 4 μM
Experimental: FIG. 6. Primary confluent fibroblasts were infected with AV.GFP3ori virus at an MOI=1000 particles/cell following treatment with brefeldin A (10 μg/ml), vinblastine (22 μM), cytochalasin B (1 μM), NH4Cl (2 mM), chloroquine (20 μm), LLnL (400 μM), and Z-LLL (4 μM), final concentration indicated in brackets. Cells were harvested at 96 hours post-infection and the transduction efficiency was compared to untreated rAAV infected cells by FACS analysis for GFP expression. To control for non-specific effects caused by toxicity of the compounds, the percentage of live cells was also assessed by the absence of propidium iodide incorporation.
80% confluent human primary fibroblasts were infected with AV.GFP3ori at an moi of 1000 DNA particles/cell. FIG. 16A depicts GFP transgene expression in the absence (left photographs) and presence of 40 μM LLnL (right photographs) at 96 hours post-infection. […] Top and bottom panels represent bright field and FITC-channel fluorescent photomicrographs, respectively. The mean (+/−SEM, N=3) percentage of cells transduced with rAAV, as measured by FACS sorting of GFP expressing cells, is presented in the bar graph of FIG. 16B. […] In this study, rAAV from infected cells was first immunoprecipitated with anti-VP1,2,3 (AAV-2 capsid) monoclonal antibody followed by Western blot detection of ubiquitin side chains using an anti-ubiquitin monoclonal antibody. […] Epithelia were infected with AV.GFP3ori (10,000 particles/cell) from the basolateral surface following treatment with ubiquitin ligase inhibitor dipeptides (0.2 mM H-Leu-Ala-OH and 0.2 mM H-His-Ala-OH).
Initial studies were performed in confluent primary human fibroblasts since dose titrations and toxicity could be quickly assessed. Selected compounds were used to treat fibroblast monolayers prior to rAAV infection. rAAV transduction was assessed at 96 hours post-infection by FACS analysis, and the percentage of dead cells was simultaneously assessed by incorporation of propidium iodide.
These tripeptides are structurally related to chloroquine but have different lipid solubility and specificity for cysteine proteases (Seglen, 1983). These molecules decrease endosomal degradation of molecules by a mechanism different than altering pH.
Transduction of polarized airway epithelial cells and primary human fibroblasts. rAAV infection of fully differentiated bronchial cells was performed as described in Duan et al. (1998). For infections from the apical surface of the airway cells, 5 μl rAAV was mixed with 50 μl of culture media and applied directly onto the apical compartment of Millicell inserts (MOI=10,000 particles/cell). During apical infection, the basolateral side of the Millicell was continuously bathed in culture media. Gene transfer to the basal side was performed by inverting Millicell inserts and applying viral vector to the bottom of the supporting filter membrane in a 50 μl volume for 2 hours. Subsequently, Millicell inserts were returned to the upright position, in the continued presence of the original viral inoculum plus an additional 450 μl of media. For both apical and basolateral infections, rAAV containing media was removed after 24 hours and replaced with either fresh culture media (for the basal side) or exposed to air (for the apical side). To test the effect of different agents on the efficiency of AAV transduction in polarized airway cells, 1 μl of each solution was mixed with AAV prior to infection of airway epithelia. Agents were usually presented during the 24 hours AAV infection period unless indicated otherwise.

[2] = Toxicity of proteasome inhibitors in mice, intra-tracheal and systemic (IV) delivery; format: in vivo; conditions: 10, 100 and 1000 fold higher doses than used in polarized airway cells
Experimental: Long-term enhancement of rAAV transduction by proteasome inhibitor in vivo. To evaluate the potential utility of proteasome inhibitors for in vivo gene therapy, both the toxicity and efficacy of these agents for in vivo rAAV mediated gene transfer in the mouse lung was tested. To assess the toxicity of these proteasome inhibitors in mice, 10, 100, and 1000 fold higher effective doses of LLnL or Z-LLL were administered than used to induce gene transfer in polarized airway cells, using both intra-tracheal and systemic (IV) delivery. No toxicity was indicated by histologic evaluation of the lung and liver (data not shown) or was evidenced by the death of animals. To investigate whether these proteasome inhibitors could improve rAAV transduction in vivo, AV.LacZ (5×10^10 particles) was delivered either alone or in the presence of 400 μM Z-LLL by intranasal administration. Mouse lungs were harvested at 3, 10 and 150 days post-infection to evaluate short and long term effects. […] Targeted transgene expression was predominantly confined to the conducting airways, rather than in the parenchyma. Alveolar cells were rarely transduced. […] The range of transgene expression in distal and proximal airways was 0 to 4% and 5 to 18%, respectively.

Solubility in ethanol = format: physicochemical

Molecule	AAV-mediated gene transfer in mouse liver, in words (mouse liver; 40 μM Z-LLL co-administered, 2 and 4 weeks)	increase in rAAV transduction in the liver (mouse liver; 1 month post-infection)	rAAV transduction (GFP expression) compared to untreated rAAV infected cells [1]	toxicity (histology of lung and liver, death of animals) [2]	solubility in ethanol (Solubility in ethanol)
CC(C)C[C@@H](C=O)NC(=O)[C@H](CC(C)C)NC(=O)[C@H](CC(C)C)NC(=O)OCc1ccccc1 [Z-LLL, N-carbobenzoxyl-L-leucinyl-L-leucinyl-L-leucinal] (Cbz-Leu-Leu-Leu-aldehyde)	enhances AAV-mediated gene transfer	7 fold	significantly increased rAAV transduction	No toxicity	–
N-acetyl-L-leucinyl-L-leucinal-L-norleucinal [LLnL]	–	–	significantly increased rAAV transduction	No toxicity	poor solubility
